Laboratory results: patent US20040096851A1, “ABCA1 PEST domain-related compositions and methods” (priority 2002, published 2004)
Blank lines part the entries; values can stand above or below the molecule they belong to.

Legend:
[1] = system: ABCA1 protein; assay: ABCA1 protein level in mouse peritoneal macrophages (Western); type: cell-based; settings: for ABCA1 protein level, effect in words: mouse peritoneal macrophages, 3 hours, apoA-I 10 μg/ml, HDL2 50 μg protein/ml, MβCD 1 mM 5 min, apigenin 40 μM
Procedure: Cellular lipid efflux assays, apoA-I cell association, and chemical cross-linking: The assays were carried out as in (14). Generally, 293 cells were labeled by culturing overnight in media containing either [^3H]cholesterol, for cholesterol efflux, or [^3H]choline, for phospholipid efflux. The next day, cells were washed with fresh media before or after treatment as indicated, and then apoA-I was added as acceptor and incubated for the indicated period before the media and cells were collected for analysis. Mouse peritoneal macrophage cells were isolated from male mice by peritoneal lavage with PBS 3 days after intraperitoneal injection with 1 ml of 3.85% thioglycollate. The cells were labeled with […] [^3H]cholesterol overnight in DMEM and 0.2% BSA supplemented with 50 μg/ml acetylated LDL plus LXR/RXR ligands 22(R)-hydroxycholesterol and 9-cis retinoic acid (both 10 μM). After labeling, cells were washed and efflux was carried out with 10 μg/ml apoA-I for 3 hours. Then, cells and medium were collected for analysis. Cholesterol efflux was expressed as the percentage of the radioactivity released from the cells into the medium, relative to the total radioactivity in cells plus medium. For apoA-I cell association, cells were incubated with 0.2 μg/ml [^125 I]apoA-I in 0.2% BSA and DMEM for 1 hour at 37° C. After being washed three times with fresh media, cells were lysed with 0.1% SDS and 0.1N NaOH lysis buffer, and radioactivity was determined by a gamma counter.
(§1) Immunoprecipitation and immunoblot analysis of ABCA1: For immunoblot analysis of ABCA1, ABCA1-FLAG, and ABCA1delPEST-FLAG, transfected HEK293 cells, peritoneal macrophages, or primary hepatocytes were washed and scraped in PBS and lysed in RIPA buffer (10 mM Tris-HCl [pH 7.3], 1 mM MgCl2, 1.0% Nonidet P-40, 0.5% sodium deoxycholate, and 5 mM EDTA in the presence of protease inhibitors as follows: 0.5 μg/ml leupeptin, 1 μg/ml aprotinin, and 1 μg/ml pepstatin A) (Roche Molecular Biochemicals, Indianapolis, Ind., USA). Postnuclear supernatants containing the indicated amounts of protein were subjected to Western analysis using an anti-ABCA1 antiserum or anti-FLAG M2 antibody and chemiluminescence detection. The relative intensities of the bands were determined by densitometry. For cell surface ABCA1 analysis, cells were first biotinylated with 0.5 mg/ml EZ-Link Sulfo-NHS-SS-Biotin (Pierce Chemical Co., Rockford, Ill., USA) at 4° C. for 30 minutes. Then cells were lysed with RIPA buffer at 4° C. After centrifugation, the supernatant of cell lysates was incubated with anti-FLAG agarose beads overnight at 4° C. Following centrifugation and washing, the collected agarose beads were subjected to SDS-PAGE sample buffer with 100 mM 2-mercaptoethanol. The total or […] ABCA1 was detected by Western blot using either anti-FLAG antibody or streptavidin-horseradish peroxidase.

[2] = system: ABCA1 phosphorylation; assay: Phosphorylation of ABCA1 in cells; type: cell-based
[3] = system: ABCA1 protein; assay: ABCA1 protein level in primary mouse hepatocytes (Western); type: cell-based; settings: apoA-I 10 μg/ml 3 hours
Procedure: as §1, with “peroxidase. […]” for “peroxidase.”

[4] = system: ABCA1 protein; assay: ABCA1 protein turnover and level in transiently transfected 293 cells (metabolic labeling, Western, cell surface biotinylation); type: cell-based, human
Text: Plasmid constructs and cell transfection: ABCA1-FLAG was constructed as described (18). ABCA1delPEST was based on ABCA1-FLAG. Using PCR, ABCA1delPEST was constructed by deleting a nucleotide sequence that encodes mouse ABCA1 amino acids 1283-1306 and was confirmed by sequencing. HEK293 cells, in 12- or 24-well collagen-coated plates, were transiently transfected with various plasmid constructs at indicated DNA concentrations with Lipofectamine 2000 (Invitrogen Corp., San Diego, Calif., USA) at 37° C. overnight (20 hours). A construct expressing green fluorescence protein (GFP) was routinely used to visually monitor transfection efficiency (i.e., the percentage of cells expressing GFP). The transfection efficiency of 293 cells was in the range of 50-80% of cells. […] In addition to performing multiple replicates within each experiment, all experiments were repeated on multiple separate occasions to confirm reproducibility of results.
as §1

[5] = system: ABCA1 protein; assay: ABCA1 protein level in mouse peritoneal macrophages (Western); type: cell-based; settings: cultured cells, short-term incubations, data not shown
[6] = system: ABCA1; settings: macrophages loaded with acetyl-LDL and cholesterol ester; cited from earlier work
[7] = target: T1, ABCA1 (Mus musculus, UniProt P41233); assay: Calpain-catalyzed proteolysis of metabolically labeled ABCA1 in digitonin-permeabilized 293 cells; type: cell-based; parameters: expressed in transfected cells; host or cells: 293 cells, digitonin-permeabilized
Procedure: (§2) Calpain-catalyzed proteolysis of metabolically labeled ABCA1: Transiently transfected 293 cells were pulse-labeled by [^35S]methionine (0.5 mCi/ml) in 0.2% BSA and DMEM for 2 hours. Cells were washed three times with fresh media and placed on ice for 10 minutes. Then cells were permeabilized by addition of 80 μg/ml digitonin in DMEM and incubated on ice for 15 minutes. Next, the cells were washed twice with fresh DMEM, and then purified μ-calpain in DMEM plus 2 mM CaCl2 was added at the indicated concentration and incubated for 20 minutes at room temperature. Then cells were lysed by addition of 1 ml RIPA buffer with 40 μg/ml calpeptin. FLAG-tagged ABCA1 was immunoprecipitated by anti-FLAG agarose beads and subjected to quantitative analysis by PhosphorImager.

[8] = target: T1, ABCA1; assay: Apolipoprotein A-I infusion in mice, ABCA1 in liver and peritoneal macrophages; type: in vivo; parameters: from tissue; host or cells: mouse liver and peritoneal macrophages
Procedure: […] Mice were anesthetized intraperitoneally with 0.1 ml/30 g body weight of a solution containing 100 mg/ml ketamine and 30 mg/ml xylazine. ApoA-I (20 mg/kg body weight) or BSA as control was administered via femoral vein as a bolus injection. Four hours after injection, animals were euthanized and the liver was dissected out for analysis.

[9] = system: calpain protease; assay: Degradation of a fluorescent calpain protease substrate in cells; type: cell-based; settings: data not shown
[10] = target: T2, ABCA1 (Mus musculus, UniProt P41233, DEL1283-1306); assay: Calpain-catalyzed proteolysis of metabolically labeled ABCA1 in digitonin-permeabilized 293 cells; type: cell-based; settings: permeabilized 293 cells, purified μ-calpain
T2 construct: expressed in transfected cells; host or cells: 293 cells, digitonin-permeabilized
Procedure: as §2

[11] = 293 cells, lactacystin 20 μM for 3 h
[12] = time-course study of apoA-I infusion
[13] = 293 cells, apoA-I 10 μg/ml 3 hours

T1 sequence (P41233 whole entry): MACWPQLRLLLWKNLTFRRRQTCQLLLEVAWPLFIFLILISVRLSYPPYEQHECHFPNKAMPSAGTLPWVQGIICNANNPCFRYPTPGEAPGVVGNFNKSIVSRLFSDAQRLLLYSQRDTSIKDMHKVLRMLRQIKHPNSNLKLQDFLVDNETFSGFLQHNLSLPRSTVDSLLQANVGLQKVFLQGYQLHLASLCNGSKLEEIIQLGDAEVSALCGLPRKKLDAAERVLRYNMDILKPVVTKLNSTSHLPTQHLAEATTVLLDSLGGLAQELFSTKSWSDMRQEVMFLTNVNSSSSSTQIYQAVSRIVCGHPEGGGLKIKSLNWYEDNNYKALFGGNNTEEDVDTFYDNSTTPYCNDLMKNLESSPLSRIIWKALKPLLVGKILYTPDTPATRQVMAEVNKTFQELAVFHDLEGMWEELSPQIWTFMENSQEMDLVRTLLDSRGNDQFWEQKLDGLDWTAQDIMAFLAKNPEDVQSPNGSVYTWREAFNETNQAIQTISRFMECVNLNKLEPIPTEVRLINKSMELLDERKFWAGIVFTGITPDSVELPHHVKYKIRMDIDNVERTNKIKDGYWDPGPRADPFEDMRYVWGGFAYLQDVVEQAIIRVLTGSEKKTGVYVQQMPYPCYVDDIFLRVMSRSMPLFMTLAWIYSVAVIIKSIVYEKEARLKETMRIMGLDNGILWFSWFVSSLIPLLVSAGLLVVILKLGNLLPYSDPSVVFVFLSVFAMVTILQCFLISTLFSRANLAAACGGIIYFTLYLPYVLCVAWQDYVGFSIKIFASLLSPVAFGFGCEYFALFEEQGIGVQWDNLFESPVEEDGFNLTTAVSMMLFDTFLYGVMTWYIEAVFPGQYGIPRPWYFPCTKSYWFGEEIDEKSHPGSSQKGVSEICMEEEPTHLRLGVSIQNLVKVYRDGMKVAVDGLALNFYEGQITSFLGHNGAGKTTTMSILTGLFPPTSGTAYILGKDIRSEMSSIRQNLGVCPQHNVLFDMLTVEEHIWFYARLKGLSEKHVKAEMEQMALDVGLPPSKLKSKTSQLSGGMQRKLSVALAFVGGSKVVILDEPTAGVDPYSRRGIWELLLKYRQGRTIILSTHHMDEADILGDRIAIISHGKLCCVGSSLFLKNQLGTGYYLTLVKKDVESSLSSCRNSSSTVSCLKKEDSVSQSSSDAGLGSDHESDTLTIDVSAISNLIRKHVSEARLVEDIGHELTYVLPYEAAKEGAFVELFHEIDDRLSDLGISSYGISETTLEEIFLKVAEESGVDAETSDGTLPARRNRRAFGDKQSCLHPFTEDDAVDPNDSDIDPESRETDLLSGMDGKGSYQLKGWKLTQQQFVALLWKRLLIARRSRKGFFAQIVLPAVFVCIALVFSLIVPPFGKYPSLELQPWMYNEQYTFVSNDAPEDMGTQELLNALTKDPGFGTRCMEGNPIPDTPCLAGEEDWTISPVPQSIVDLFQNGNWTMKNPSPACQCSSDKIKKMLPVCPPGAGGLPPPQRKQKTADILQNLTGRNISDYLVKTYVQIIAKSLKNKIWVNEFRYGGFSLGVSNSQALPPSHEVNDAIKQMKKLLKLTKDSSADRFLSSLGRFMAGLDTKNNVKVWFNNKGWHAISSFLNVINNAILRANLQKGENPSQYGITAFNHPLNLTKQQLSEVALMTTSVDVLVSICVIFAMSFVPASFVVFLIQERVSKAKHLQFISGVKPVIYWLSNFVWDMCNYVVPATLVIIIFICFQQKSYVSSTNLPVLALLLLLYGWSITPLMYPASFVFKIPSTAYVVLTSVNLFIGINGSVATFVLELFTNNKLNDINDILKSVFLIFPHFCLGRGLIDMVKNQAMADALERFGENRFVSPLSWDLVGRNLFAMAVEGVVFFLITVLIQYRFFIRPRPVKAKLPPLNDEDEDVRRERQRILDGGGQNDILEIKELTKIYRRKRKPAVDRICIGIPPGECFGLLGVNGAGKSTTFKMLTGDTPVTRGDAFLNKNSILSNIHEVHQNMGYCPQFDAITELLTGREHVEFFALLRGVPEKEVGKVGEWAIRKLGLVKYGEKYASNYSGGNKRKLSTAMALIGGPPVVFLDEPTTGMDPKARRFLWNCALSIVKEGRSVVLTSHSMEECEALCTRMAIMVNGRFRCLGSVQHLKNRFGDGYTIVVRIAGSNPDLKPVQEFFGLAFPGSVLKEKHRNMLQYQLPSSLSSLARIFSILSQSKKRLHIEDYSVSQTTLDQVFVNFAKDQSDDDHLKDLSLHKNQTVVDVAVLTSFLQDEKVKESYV
T2 sequence (P41233 with tags, fused parts or gaps DEL1283-1306): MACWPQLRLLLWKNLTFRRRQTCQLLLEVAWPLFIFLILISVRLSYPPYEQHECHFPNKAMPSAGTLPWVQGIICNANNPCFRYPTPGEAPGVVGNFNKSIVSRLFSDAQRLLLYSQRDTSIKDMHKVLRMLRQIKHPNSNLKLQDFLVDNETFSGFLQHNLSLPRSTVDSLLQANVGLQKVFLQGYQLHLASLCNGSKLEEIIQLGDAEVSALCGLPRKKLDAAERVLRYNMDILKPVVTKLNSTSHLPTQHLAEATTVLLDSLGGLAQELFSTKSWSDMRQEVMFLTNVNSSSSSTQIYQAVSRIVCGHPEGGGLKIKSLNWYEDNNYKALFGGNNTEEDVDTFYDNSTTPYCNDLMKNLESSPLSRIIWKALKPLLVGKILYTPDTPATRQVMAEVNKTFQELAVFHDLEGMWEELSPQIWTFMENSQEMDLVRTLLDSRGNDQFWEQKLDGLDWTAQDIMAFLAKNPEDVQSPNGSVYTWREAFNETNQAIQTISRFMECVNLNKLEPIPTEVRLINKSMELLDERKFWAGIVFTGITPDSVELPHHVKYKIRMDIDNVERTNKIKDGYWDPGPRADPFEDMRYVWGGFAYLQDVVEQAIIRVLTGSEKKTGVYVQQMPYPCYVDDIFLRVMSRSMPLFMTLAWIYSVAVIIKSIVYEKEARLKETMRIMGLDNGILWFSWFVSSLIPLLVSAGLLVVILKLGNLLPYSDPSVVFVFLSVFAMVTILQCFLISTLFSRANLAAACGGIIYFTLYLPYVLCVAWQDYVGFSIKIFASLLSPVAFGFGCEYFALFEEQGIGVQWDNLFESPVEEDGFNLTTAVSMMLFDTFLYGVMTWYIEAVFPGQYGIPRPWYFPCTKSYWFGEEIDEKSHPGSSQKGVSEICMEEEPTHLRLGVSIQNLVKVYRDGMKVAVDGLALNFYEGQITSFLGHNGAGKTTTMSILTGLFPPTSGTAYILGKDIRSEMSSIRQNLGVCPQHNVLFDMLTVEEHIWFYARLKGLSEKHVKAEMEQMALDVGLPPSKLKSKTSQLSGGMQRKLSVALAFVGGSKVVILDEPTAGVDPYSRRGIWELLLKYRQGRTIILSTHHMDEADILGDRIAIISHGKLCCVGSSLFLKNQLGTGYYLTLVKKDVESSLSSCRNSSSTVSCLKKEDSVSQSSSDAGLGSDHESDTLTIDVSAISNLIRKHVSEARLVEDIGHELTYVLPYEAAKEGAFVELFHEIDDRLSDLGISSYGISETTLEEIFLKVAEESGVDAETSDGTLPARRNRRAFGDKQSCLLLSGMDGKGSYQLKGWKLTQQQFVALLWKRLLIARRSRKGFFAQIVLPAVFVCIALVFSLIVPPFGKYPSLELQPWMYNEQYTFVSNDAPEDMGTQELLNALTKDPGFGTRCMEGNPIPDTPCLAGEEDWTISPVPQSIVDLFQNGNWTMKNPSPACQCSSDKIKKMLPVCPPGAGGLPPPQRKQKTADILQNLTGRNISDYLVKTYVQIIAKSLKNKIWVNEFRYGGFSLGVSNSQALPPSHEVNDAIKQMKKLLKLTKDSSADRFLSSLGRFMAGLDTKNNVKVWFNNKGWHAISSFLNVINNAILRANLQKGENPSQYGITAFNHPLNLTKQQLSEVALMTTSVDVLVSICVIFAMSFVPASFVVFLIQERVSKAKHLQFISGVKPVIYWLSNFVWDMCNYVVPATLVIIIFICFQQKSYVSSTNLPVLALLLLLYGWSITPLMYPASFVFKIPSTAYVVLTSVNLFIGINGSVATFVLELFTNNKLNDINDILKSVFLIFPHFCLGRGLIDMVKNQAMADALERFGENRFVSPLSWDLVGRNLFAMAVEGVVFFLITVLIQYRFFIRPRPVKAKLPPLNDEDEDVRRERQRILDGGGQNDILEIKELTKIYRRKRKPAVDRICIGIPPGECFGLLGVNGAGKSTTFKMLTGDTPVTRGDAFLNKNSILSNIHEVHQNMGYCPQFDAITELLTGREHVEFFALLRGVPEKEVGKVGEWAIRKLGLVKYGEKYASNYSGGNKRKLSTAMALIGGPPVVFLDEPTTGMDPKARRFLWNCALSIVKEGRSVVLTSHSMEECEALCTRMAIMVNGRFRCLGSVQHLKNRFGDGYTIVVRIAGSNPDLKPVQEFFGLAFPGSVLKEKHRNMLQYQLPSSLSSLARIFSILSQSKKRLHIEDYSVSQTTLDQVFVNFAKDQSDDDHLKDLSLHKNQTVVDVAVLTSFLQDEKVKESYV

Molecule: O=c1cc(-c2ccc(O)cc2)oc2cc(O)cc(O)c12 [apigenin, reference compound]
ABCA1 protein level, effect in words [1]: increase | phosphorylation of ABCA1 [2]: decrease

Molecule: CCCC[C@@H](C=O)NC(=O)[C@H](CC(C)C)NC(=O)OCc1ccccc1 [calpeptin]
ABCA1 protein level, effect in words [3]: increased | effect of calpeptin on ABCA1delPEST (PEST sequence deleted) ([4]; 293 cells, calpeptin 30 μg/ml for 3 hours): abolished | mean increase in ABCA1 protein levels ([4]; 293 cells, calpeptin 30 μg/ml for 3 hours, p<0.001): 3.84±0.32 fold | cell surface ABCA1, effect in words ([4]; calpeptin): marked increase | ABCA1 protein level, effect in words [1]: increased | ABCA1 mRNA [5]: without any change

Molecule: CC(=O)N[C@@H](CSC(=O)[C@]1([C@@H](O)C(C)C)NC(=O)[C@H](C)[C@@H]1O)C(=O)O [lactacystin]
ABCA1 level [6]: increased | accumulation of total and cell surface ubiquitinated ABCA1 [4, 11]: increase in the accumulation | increase in total ABCA1 levels [4, 11]: 2.2 fold | increase in cell surface ABCA1 levels ([4]; 293 cells, lactacystin, data not shown): 2.2 fold | ABCA1 level ([1]; acetyl-LDL-loaded, LXR/RXR-activated macrophages, data not shown): increased

Molecule: C=C1[C@@H](O)[C@@H]2O[C@]3(CC[C@H](/C=C/[C@@H](C)[C@@H]4CC(C)=C[C@@]5(O[C@H](C[C@@](C)(O)C(=O)O)CC[C@H]5O)O4)O3)CC[C@H]2O[C@@H]1[C@@H](O)C[C@H](C)[C@H]1O[C@@]2(CCCCO2)CC[C@H]1C [okadaic acid]
ability of apoA-I to increase ABCA1 protein levels ([1]; macrophages): abolished

ability of calpain to mediate proteolysis of ABCA1 after pre-treatment ([7]; apoA-I 10 μg/ml for 3 hours prior to permeabilization): abolished | ABCA1 protein in liver ([8]; mice, intravenous apoA-I 20 mg/kg, 4 hours, chow-fed): induction | ABCA1 protein in peritoneal macrophages ([8]; mice, intravenous apoA-I, 4 hours, high-fat, high-cholesterol diet for 7 days): induction | ABCA1 mRNA levels in liver ([8]; quantitative real-time PCR, data not shown): did not significantly alter | ABCA1 protein levels after 24 hours [8, 12]: returned to base line | time for which the increase in ABCA1 was sustained [8, 12]: 8 h
Molecule: apoA-I: Human apoA-I (BIODESIGN International), dialyzed against PBS; apolipoprotein ligand of ABCA1
ABCA1 protein level, effect in words [3]: rapid, marked increase | cellular expression levels of ABCA1delPEST [4, 13]: no effect | protein levels of Walker motif mutant ABCA1 [4, 13]: no increase | ABCA1 protein level, effect in words ([4]; 293 cells, wild type ABCA1, apoA-I 10 μg/ml 3 hours): rapid, marked increase | level of ABCA1-W590S mutant ([4]; mutant binds apoA-I but does not mediate lipid efflux, data not shown): fails to increase | ubiquitination levels of ABCA1 ([4]; with or without proteasome inhibitors, data not shown): did not decrease | cell surface expression of ABCA1 ([1]; macrophages, 3 hours apoA-I, biotinylation): increased | ABCA1 protein level, effect in words [1]: rapid, marked increase | effect on ABCA1 in primary macrophage cultures [1]: stabilization | ABCA1 mRNA [5]: did not change | phosphorylation of ABCA1 [2]: time- and dose-dependent reduction | degradation of fluorescent calpain protease substrate [9]: no change

Molecule: apoE: apoprotein ligand of ABCA1
effect on ABCA1 in primary macrophage cultures [1]: stabilization

Molecule: methy-β-cyclodextrin
ABCA1 protein level, effect in words [1]: no effect

degradation of wild type ABCA1 ([7]; permeabilized 293 cells, purified μ-calpain): efficient degradation | degradation of ABCA1delPEST [10]: no appreciable degradation
B1: μ-calpain: Purified μ-calpain protease from Calbiochem-Novabiochem (protein, UniProt P07384 2-714; P04632 1-268, looked up)
Calpain-1 catalytic subunit: SEEIITPVYCTGVSAQVQKQRARELGLGRHENAIKYLGQDYEQLRVRCLQSGTLFRDEAFPPVPQSLGYKDLGPNSSKTYGIKWKRPTELLSNPQFIVDGATRTDICQGALGDCWLLAAIASLTLNDTLLHRVVPHGQSFQNGYAGIFHFQLWQFGEWVDVVVDDLLPIKDGKLVFVHSAEGNEFWSALLEKAYAKVNGSYEALSGGSTSEGFEDFTGGVTEWYELRKAPSDLYQIILKALERGSLLGCSIDISSVLDMEAITFKKLVKGHAYSVTGAKQVNYRGQVVSLIRMRNPWGEVEWTGAWSDSSSEWNNVDPYERDQLRVKMEDGEFWMSFRDFMREFTRLEICNLTPDALKSRTIRKWNTTLYEGTWRRGSTAGGCRNYPATFWVNPQFKIRLDETDDPDDYGDRESGCSFVLALMQKHRRRERRFGRDMETIGFAVYEVPPELVGQPAVHLKRDFFLANASRARSEQFINLREVSTRFRLPPGEYVVVPSTFEPNKEGDFVLRFFSEKSAGTVELDDQIQANLPDEQVLSEEEIDENFKALFRQLAGEDMEISVKELRTILNRIISKHKDLRTKGFSLESCRSMVNLMDRDGNGKLGLVEFNILWNRIRNYLSIFRKFDLDKSGSMSAYEMRMAIESAGFKLNKKLYELIITRYSEPDLAVDFDNFVCCLVRLETMFRFFKTLDTDLDGVVTFDLFKWLQLTMFA
Calpain small subunit 1: MFLVNSFLKGGGGGGGGGGGLGGGLGNVLGGLISGAGGGGGGGGGGGGGGGGGGGGTAMRILGGVISAISEAAAQYNPEPPPPRTHYSNIEANESEEVRQFRRLFAQLAGDDMEVSATELMNILNKVVTRHPDLKTDGFGIDTCRSMVAVMDSDTTGKLGFEEFKYLWNNIKRWQAIYKQFDTDRSGTICSSELPGAFEAAGFHLNEHLYNMIIRRYSDESGNMDFDNFISCLVRLDAMFRAFKSLDKDGTGQIQVNIQEWLQLTMYS
